Data on three compounds can be found in US7109339B2, “Substituted tricyclic gamma-carbolines as serotonin receptor agonists and antagonists” (Bristol-Myers Squibb Company, priority 2002, dated 2006).

Molecules are shown by their SMILES.

As a reminder, the melting point is the temperature of the solid-liquid transition. The compound `COc1ncc(C)cc1Nc1cc(C#N)c2c(c1)[C@@H]1CNCC[C@@H]1N2C` [Example 169, (4aS,9bR)-8-(2-methoxy-5-methyl-pyridin-3-ylamino)-5-methyl-2,3,4,4a,5,9b-hexahydro-1H-pyrido[4,3-b]indole-6-carbonitrile] came in with a melting point of 76 to 80 °C.

Consider `CC(C)(C)OC(=O)N1CC[C@H]2[C@@H](C1)c1cc(Br)cc(C#N)c1N2C(=O)OC(C)(C)C`, for which the melting point was 74 to 78 °C.

`COc1cc2c(c(C(F)(F)F)c1)N[C@H]1CCNC[C@@H]21` returned a melting point of 140 to 144 °C.
